The source of these data is US20260355318A1, “MOLECULAR MACHINES FOR TREATMENT OF CANCER, FUNGAL INFECTIONS, OR BACTERIAL INFECTIONS” (priority 2022, published 2026).

The subject of test [1] is superoxide dismutase. The test can be described thus: Superoxide dismutase (SOD) activity. In kind it is cell-based, Candida albicans. Conditions: 0.5×MIC, p<0.05. As to the method: Superoxide dismutase (SOD) activity was determined using a Superoxide Dismutase Assay Kit (Caymanchem, MI, USA) per the distributor's instructions. Lipid peroxidation was determined using a TBARS assay kit (TCA method) (Caymanchem, MI, USA) per the distributor's instructions. SOD activity and MDA levels were normalized by protein content determined by the Pierce assay (Pierce™ BCA Protein Assay Kit, Thermo Fisher Scientific, MA, USA).

Test [2] concerns B. megaterium. Kind of test: MIC, B. megaterium. Conditions: Priestia megaterium, 405 nm light. In kind it is cell-based, Bacillus megaterium. As to the method:
The appropriate volume of an MM stock at 8 mM necessary to achieve a concentration ranging from 0.3125 to 40 μM was pipetted into a 2 mL microcentrifuge tube to which 1 mL of cell suspension prepared as previously described was added. Corresponding negative controls (DMSO only) were prepared in the same way. The mixture was gently mixed by pipetting and incubated in the dark at 30 or 37 ° C, depending on the strain, for 30 min with agitation (220 rpm). Afterward, MM- or DMSO-treated cells were dispensed in one well of a 24-well plate positioned in the center of the light beam (405 nm LED Light, Prizmatix, UHP—F-5-405) placed at the appropriate distance necessary to achieve the desired light intensity of 304 mW cm-2, 146 mW cm2 or 87 mW cm2, as measured with a handheld digital power meter console coupled to an S415C thermal power sensor head (Thorlabs, Newton, MA, USA). The temperature during irradiation was monitored using a thermocouple probe (Model SC-TT-K-30-36-PP; Omega Engineering, Inc., Stanford, CT, USA). Samples were agitated during irradiation. Dark controls were prepared as previously described except that no irradiation was provided. […]

As usually defined, the MIC is the smallest concentration in the dilution series that meets the test's criterion for growth inhibition. For the compound `C[C@@H]1Cc2ccc3ccccc3c2/C1=C1\c2ccccc2Sc2cc(NCCN(C)C)ccc21` [MM 1, N^1N^1-dimethyl-N^2-(9-(2-methyl-2,3-dihydro-1H-cyclopenta[a]naphthalen-1-ylidene)-9H-thioxanthen-3-yl) ethane-1,2-diamine], the superoxide dismutase activity result in test [1] is “increased superoxide dismutase activity”. Further, the MIC in test [2] worked out at 0.078 µM.
